Data as given in paper PMC2719696, “Kinetics and Cellular Site of Glycolipid Loading Control the Outcome of Natural Killer T Cell Activation” (Immunity, 2009).

Assays:
[1] = biological target: T1, hCD1d (Homo sapiens, UniProt P15813); experiment: Loading of hCD1d tetramers with or without 0.05% Triton X-100, staining of hybridoma DN3A4.1-2; format: binding
T1 construct: made in house
Source text: The efficient loading of CD1 molecules with lipids such as αGalCer-C26:0 is known to involve cofactors that enhance the transfer of lipids from micelles or membranes into the antigen-binding groove of the CD1 protein. The best known of these cofactors are resident intracellular lipid binding and transfer proteins including those belonging to the saposin family, GM2 activator proteins, and Niemann-Pick type C1 and C2 proteins ([Zhou et al., 2004; Sagiv et al., 2006; Yuan et al., 2007; Schrantz et al., 2007]). Most of these are known to have detergent-like activities that facilitate solubilization of lipids and their exchange between hydrophobic binding sites. […]
Figure 5 Lack of Detergent-like Cofactor Dependence of Th2 Cell-Type Cytokine-Biasing αGalCer Analogs (A) Glycolipids were incubated for 24 hr at 37°C with murine CD1d proteins in the absence (top row) or presence (bottom row) of 0.05% Triton X-100. […] After washing, DN32.D3 iNKT hybridoma cells were added and supernatant concentrations of IL-2 were determined after an additional 14 hr of incubation. […]
Recombinant CD1d proteins were produced and assembled into tetramers for staining as previously described ([Forestier et al., 2007]). […] All samples were analyzed with the FACSCalibur flow cytometer (BD Biosciences).

[2] = tested on: human iNKT cells; experiment: In vitro expansion of human iNKT cells from PBMC (FACS with 6B11 and anti-CD3); format: cell-based; details: 100 nM glycolipid, IL-2 and IL-7, day 7
Method: Figure S3. Responses of human iNKT cells to Th2 cell-type cytokine biasing […]
(A) For in vitro expansion of iNKT cells, 2 million human PBMC per well in 96 well plates were stimulated with 100 nM of glycolipids in the presence of IL-2 (60 IU/ml) and IL-7 (5 ng/ml). At day 7, cultures were harvested and analyzed by FACS using 6B11 (specific for the TCRα chain of iNKT cells) and anti-CD3 mAbs. Significant expansion of human […]
all glycolipids with the exception of OCH. Similar results were obtained in three independent experiments from 6 different donors.
(B) Cytokine production by a CD4+ human iNKT clone (HDD11) stimulated with human monocyte-derived dendritic cells pulsed with αGalCer analogues. For in vitro activation of human iNKT cells, 5 x 10^4 cloned iNKT cells per well were stimulated with 2.5 x104 […]

T1 sequence (P15813 20-301 limits assumed): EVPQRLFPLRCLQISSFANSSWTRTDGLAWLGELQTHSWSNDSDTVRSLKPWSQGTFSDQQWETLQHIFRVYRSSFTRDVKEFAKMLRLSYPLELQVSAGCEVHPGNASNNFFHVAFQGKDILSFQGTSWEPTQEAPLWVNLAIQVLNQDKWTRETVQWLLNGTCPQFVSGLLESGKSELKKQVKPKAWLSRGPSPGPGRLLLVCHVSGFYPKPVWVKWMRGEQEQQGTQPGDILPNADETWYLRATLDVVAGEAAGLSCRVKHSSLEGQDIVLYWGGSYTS
T1 sequence (P61769 21-119 partner): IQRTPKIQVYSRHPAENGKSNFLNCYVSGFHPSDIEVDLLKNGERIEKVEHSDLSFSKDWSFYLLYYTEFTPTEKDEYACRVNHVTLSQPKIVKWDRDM

CCCCCCCCCCCCCCCCCCCCCCCC(=O)NC(COC1OC(CO)C(O)C(O)C1O)C(O)C(O)CCCCC (centres unmarked) [OCH]
formation of hCD1d tetramers with iNKT cell-binding avidity [1]: failed to form hCD1d tetramers with iNKT cell-binding avidity under any conditions
expansion of human iNKT cells (percentage of total viable lymphocytes) [2]: exception
